Assay results: PMC10716148 (Scientific Reports, 2023)
“Also recorded” adds a separate entry of the source.

Columns and labels:
B16F10 melanoma cells [1] = test: Anti-melanogenic assay (melanin content) in B16F10 cells; assay type: cell-based, Murine; conditions: mean ± SD (n = 3)
Protocol: (§1) Murine melanoma B16F10 cells (obtained from DS Pharma Biomedical, Japan) were cultivated in Dulbecco's Modified Eagle Medium (DMEM), a liquid medium supplemented with 10% fetal bovine serum (FBS) and 1% penicillin/streptomycin. The cells were incubated at a temperature of 37 °C within a controlled humidified environment containing 5% CO2. To facilitate subculture, the cells were detached from the culture flask using trypsin solution. Subsequently, the cells were subjected to staining with trypan blue solution and quantified using a hemocytometer for further analysis. The final concentration of DMSO was 0.1% for all experiments.
Murine melanoma B16F10 cells were gently rinsed with phosphate-buffered saline (PBS) and detached from the cell tissue culture dish using trypsin. The cells were subsequently seeded in 24-well culture plates at a density of 5 × 10^4 cells per well and allowed to incubate for 24 h before being subjected to treatment with the experimental samples. Arbutin was used as a positive control. Following the treatment, the cells were further incubated for an additional 72 h, and the absorbance was measured at 510 nm using a microplate reader. Melanin production was expressed as a percentage relative to the control cells treated with DMSO. All experiments were conducted in triplicate. The IC50 value was calculated. The percentage of total melanin content was determined using the following equation: %Totalmelanincontent=Abstreated cells-Absblank of treated cells/Abscontrol-Absblank of control×100

B16F10 melanoma cells [2] = test: Cytotoxicity assay (MTT) in B16F10 cells; assay type: cell-based, Murine; conditions: for Cytotoxicity: B16F10 melanoma cells, 72 h
Protocol: as §1
Cytotoxicity was assessed through the utilization of the MTT assay. The cell culture was initiated in 24-well plates, with a seeding density of 5 × 10^4 cells per well. After treatment with samples for 72 h, 10 µL of MTT solution (5 mg/mL in PBS) were added to each well and incubated for additional 3 h. Then, supernatant was removed and DMSO (250 µL) was added to dissolve the formed formazan crystals. The absorbance was measured at 570 nm using a microplate reader. Cells treated solely with DMSO served as the control. All experiments were conducted in triplicate. The percentage of cell viability was determined using the following calculation: %Cellviability=Abstreated cells-Absblank of treated cells/Abscontrol-Absblank of control×100

[3] = Accelerated stability test, chemical stability by HPLC; assay type: physicochemical; conditions: for remaining at 720 h: cosmetic formulation F1, after 30 days (1 month) at 45 °C
melanocytes = tested on: melanocytes; set-up: method as in Tang et al. [15]; conditions: ref Tang et al. [15]; cited from earlier work
[4] = Mus musculus, B16-F10, 72 h treatment

Row | IC50 (B16F10 melanoma cells [1]; [4]) | Content in formulation F1 ([3]; Day 1, HPLC) | Content in formulation F1 ([3]; Day 30, 45 °C, HPLC) | %Remaining in formulation F1 ([3]; after 30 days (1 month) at 45 °C) | remaining at 720 h [3] | Molecule | Cytotoxicity (B16F10 melanoma cells [2]) | IC50 (B16F10 melanoma cells [1]; 72 h treatment) | Effect on melanin production and melanocyte growth (melanocytes) | Cytotoxicity (in words) (B16F10 melanoma cells [2]; B16F10 cells, b13: 72 h, concentrations as high as 1000 µM)
1 | > 200 µM |  |  |  |  | CC1OC(Oc2cc(O)c3c(=O)c(OC4OC(CO)C(O)C(O)C4O)c(-c4ccc(O)cc4)oc3c2)C(O)C(O)C1O [Compound 4, kaempferol-3-O-β-D-glucopyranosyl-7-O-α-L-rhamnopyranoside] | > 1000 µM |  |  | 
2 | 807.6 ± 2.9 µM | 0.1991 ± 0.0004 %w/w | 0.1940 ± 0.0057 %w/w | 97.44% | > 90% | OC[C@H]1O[C@@H](Oc2ccc(O)cc2)[C@H](O)[C@@H](O)[C@@H]1O [Arbutin] | > 1000 µM |  |  | 
3 |  |  |  |  |  | Quercetin-3-O-rhamnoside [Compound 1] |  | 135 ± 2.1 µM |  | 
4 |  |  |  |  |  | O=c1c(O)c(-c2ccc(O)cc2)oc2cc(O)cc(O)c12 [kaempferol] |  |  | induce melanin production and melanocyte growth | 
5 | 23 ± 1.3 µM | 0.0050 ± 0.0005 %w/w | 0.0048 ± 0.0003 %w/w |  | > 90% | C[C@@H]1O[C@@H](Oc2cc(O)c3c(=O)c(O)c(-c4ccc(O)cc4)oc3c2)[C@H](O)[C@H](O)[C@H]1O [Compound 3, kaempferol-7-O-α-L-rhamnopyranoside] | > 1000 µM |  |  | absence of discernible cytotoxicity; also recorded: no significant toxicity was observed
